Results from patent publication US12606805B2, “Tymovirus virus and virus-like particles as nanocarriers for imaging and therapeutic agents” (priority 2017, dated 2026).

What was measured:
[1] = target: T1, PhMV-derived VLPs (Physalis mottle virus, UniProt P36351); conditions: for Number of guest molecules loaded per VLP (affinity of the VLPs): infusion overnight at room temperature, molar excess 500 to 10,000 per VLP; for Number of molecules loaded per VLP: 5000-fold molar excess per particle
T1 construct: The coat protein gene (564 bp) was inserted into the vector pRSET-A and expressed in ClearColi BL21(DE3); made in house; host or cells: E. coli ClearColi BL21(DE3)
T1 sequence (P36351 whole entry, the tested form may be a part): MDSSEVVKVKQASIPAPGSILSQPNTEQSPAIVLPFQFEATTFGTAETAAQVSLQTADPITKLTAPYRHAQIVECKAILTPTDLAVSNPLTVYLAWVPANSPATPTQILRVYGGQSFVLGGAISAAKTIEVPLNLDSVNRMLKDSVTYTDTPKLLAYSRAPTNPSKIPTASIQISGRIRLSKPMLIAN
Procedure: The VLPs were loaded with rhodamine B, fluorescein, crystal violet, MTX dihydrochloride (all Sigma-Aldrich), PS (cationic zinc ethynylphenyl porphyrin, full name 5-(4-ethynylphenyl)-10,15,20-tris)4-methylpyridin-4-ium-1-yl)porphyrin zinc(II) triiodide), or DOX hydrochloride (Indofine Chemical Company). The VLPs (1 mg/mL in KP buffer) were incubated with a molar excess of 500, 2500, 5000, or 10000 cargo molecules per particle overnight at room temperature in the dark, before purification over a 30% (w/v) sucrose cushion to remove excess reagents by ultracentrifugation at 52,000 rpm using a TLA 55 rotor (Beckman Coulter Inc.) at 4° C. for 1 h. PS-PhMV and DOX-PhMV were synthesized for further characterization using a 5000-fold molar excess.
A NanoDrop 2000 spectrophotometer (Thermo Fisher Scientific) was used to characterize the UV/visible spectra of native and modified VLPs. The dye load was determined using the protein concentration (measured using the Bradford assay), the Beer-Lambert law and the following dye-specific extinction coefficients: rhodamine B, F(553 nm)=116,000 M^−1 cm^−1; DOX, ε(496 nm)=11,500 M^−1 cm^−1; crystal violet, ε(590 nm)=87,000 M^−1 cm^−1; PS, ε(450 nm)=195,000 M^−1 cm^−1; MTX, ε(622 nm)=25,000 M^−1 cm^−1; sulfo-Cy5 NHS ester, ε(646 nm)=271,000 M^−1 cm^−1; Cy5.5-maleimide, 8(673 nm)=209,000 M^−1 cm^−1. The following molecular weights were used: PhMV=4.7×10^6 g mol^−1; rhodamine B=479.02 g mol^−1; DOX=579.98 g mol^−1; crystal violet=407.98 g mol^−1; PS=1130 g mol^−1; mitoxantrone=517.4 g mol^−1; Cy5=777.95 g mol^−1; Cy5.5=741.36 g mol^−1; Biotin NHS ester=341.38 g mol^−1; Biotin maleimide=451.54 g mol^−1.
Intact VLPs were incubated in a bathing solution containing the guest molecule at various molar excesses (500, 2500, 5000 and 10,000 molecules per VLP) in KP buffer with 10% (v/v) DMSO overnight at room temperature. After the reaction, excess guest molecules were removed by ultracentrifugation and the amount of protein and cargo was quantified by the Bradford assay and UV/visible spectroscopy, respectively. We applied the Beer-Lambert law and the specific extinction coefficient of each guest molecule to determine the number of cargo molecules per VLP (FIG. 5).

[2] = tested on: PC-3 cells; assay: LIVE/DEAD assay after photodynamic therapy; format: cell-based, human
Procedure: PC-3 cells were seeded (20,000 cells/500 μL RPMI/well) in a 24-well plate overnight. The cells were washed twice in PBS and incubated for 8 h in triplicates with 5.0 μM PS, 5.0 μM PS-PhMV, or the corresponding concentration of unloaded VLPs ([…] or ˜0.19 mg/mL). After washing twice in PBS, 500 μL RPMI medium was added. Photodynamic therapy was then applied using a white light source (Phillips Silhouette High Output F39T5/841 HO, Alto collection, ˜10 mW cm^−2) for 30 min (18.1 J cm^−2 at 430 nm) and cells were incubated for a further 48 h in the dark. Cell viability was determined using a LIVE/DEAD assay for mammalian cells (Thermo Fisher Scientific) following the manufacturer's procedures for cell staining, and cells were observed under a Zeiss Axio Observer Z1 motorized FL inverted microscope.

[3] = tested on: PC-3 cells; assay: MTT cell viability assay after photodynamic therapy
Procedure: PC-3 cells were seeded (5000 cells/100 μL RPMI 1640/well) in a 96-well plate overnight. After two PBS washes to remove unbound and dead cells, free PS, or PS-PhMV was added to the cells in triplicate at concentrations of 0.01, 0.025, 0.05, 0.1, 0.25, 0.5, 1, 2.5 and 5.0 μM PS, and incubated for 8 h. Untreated cells and cells treated with unloaded VLPs at the equivalent protein concentration to PS-PhMV particles at the highest dose of PS were also used as controls. Free particles were washed with PBS and 100 μL of fresh medium was added. The cells were then illuminated with white light for 30 min as above. In parallel, a duplicate plate was prepared and kept in the dark as a negative control. Following phototherapy, cells were incubated for another 48 h in the dark, and their viability was subsequently measured using an MTT cell proliferation assay kit (ATCC) based on the manufacturer's instructions. A Tecan Infinite 200 PRO multimode plate reader was used to measure absorbance at 570 nm, and the percent cell viability was normalized to the untreated control. All assays were carried out at least three times.

[4] = tested on: A2780 (human ovarian cancer) cells; assay: MTT cell viability assay, DOX-PhMV versus DOX; format: cell-based; conditions: 24 h
Procedure: All assays were carried out at least three times.

Row | Compound | Number of guest molecules loaded per VLP (affinity of the VLPs) [1] [molecules per particle] | Number of molecules loaded per VLP [1] | other results
1 | O=C1c2c(O)ccc(O)c2C(=O)c2c(NCCNCCO)ccc(NCCNCCO)c21 [MTX, mitoxantrone] | 450 |  | 
2 | C#Cc1ccc(C2=C3C=CC(=N3)C(c3cc[n+](C)cc3)=c3ccc4[n]3[Zn][n]3c2ccc3C(c2cc[n+](C)cc2)=C2C=CC(=N2)C=4c2cc[n+](C)cc2)cc1.[I-].[I-].[I-] [PS] | ~200 | 160-180 molecules per VLP | Cell viability (LIVE/DEAD), dark controls ([2]; 5.0 μM, 8 h, maintained in the dark): 100%; Cell viability (LIVE/DEAD), illuminated ([2]; 5.0 μM, 8 h, white light 30 min): 0%; Cytotoxicity of dark controls (LIVE/DEAD) ([2]; dark controls): no cytotoxicity; Cytotoxicity of dark controls (MTT) ([3]; PC-3 cells kept in the dark): no cell killing; IC50 ([3]; read-out: IC50 (cell killing, MTT), PC-3 cells, 8 h incubation, 30 min white light illumination): 50 nM
3 | CN(C)c1ccc(C(=C2C=CC(=[N+](C)C)C=C2)c2ccc(N(C)C)cc2)cc1 [crystal violet] | 2000 |  | 
4 | COc1cccc2c1C(=O)c1c(O)c3c(c(O)c1C2=O)C[C@@](O)(C(=O)CO)C[C@@H]3O[C@H]1C[C@H](N)[C@H](O)[C@H](C)O1 [DOX, doxorubicin] | 750 | 600-800 molecules per VLP | IC50 (MTT) [4]: equivalent
5 | CCN(CC)c1ccc2c(-c3ccccc3C(=O)O)c3ccc(=[N+](CC)CC)cc-3oc2c1.[Cl-] [rhodamine B] | ~200 |  | 
